PMC6659418 (Bioorganic & medicinal chemistry letters, 2017)

Key:
[1] = biological target: T1, hM4 (Homo sapiens, UniProt P08173); test: calcium mobilization assay, hM4/Gqi5 CHO cells, ACh EC80; type: cell-based; conditions: for hM4 % ACh Min ±SEM: presence of ACh EC80
T1 sequence (P08173 1-479): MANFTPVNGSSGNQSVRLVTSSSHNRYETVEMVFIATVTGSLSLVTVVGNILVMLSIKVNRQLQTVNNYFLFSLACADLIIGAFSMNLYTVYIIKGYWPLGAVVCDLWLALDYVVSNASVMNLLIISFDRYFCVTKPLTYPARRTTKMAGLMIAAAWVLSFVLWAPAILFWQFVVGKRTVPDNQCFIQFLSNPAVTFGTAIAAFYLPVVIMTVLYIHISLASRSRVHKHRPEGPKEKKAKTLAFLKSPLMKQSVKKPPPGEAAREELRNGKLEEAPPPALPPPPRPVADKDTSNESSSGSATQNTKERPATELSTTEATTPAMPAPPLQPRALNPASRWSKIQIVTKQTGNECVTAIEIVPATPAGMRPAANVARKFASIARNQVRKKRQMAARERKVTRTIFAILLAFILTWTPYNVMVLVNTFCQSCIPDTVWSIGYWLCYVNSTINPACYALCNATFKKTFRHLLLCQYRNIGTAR

[2] = predicted hepatic clearance from microsomal intrinsic clearance, human; type: in vitro ADME; conditions: based on microsomal CLint
[3] = plasma protein binding; type: in vitro ADME
[4] = metabolite identification in rat hepatic microsomes; type: in vitro ADME
[5] = predicted hepatic clearance from microsomal intrinsic clearance, rat; type: in vitro ADME; conditions: based on microsomal CLint
[6] = metabolite identification in human hepatic microsomes; type: in vitro ADME
[7] = biological target: T2, rM4 (Rattus norvegicus, UniProt P08485); test: activity at rat mAChRs, rM4; type: cell-based
T2 sequence (P08485 1-478): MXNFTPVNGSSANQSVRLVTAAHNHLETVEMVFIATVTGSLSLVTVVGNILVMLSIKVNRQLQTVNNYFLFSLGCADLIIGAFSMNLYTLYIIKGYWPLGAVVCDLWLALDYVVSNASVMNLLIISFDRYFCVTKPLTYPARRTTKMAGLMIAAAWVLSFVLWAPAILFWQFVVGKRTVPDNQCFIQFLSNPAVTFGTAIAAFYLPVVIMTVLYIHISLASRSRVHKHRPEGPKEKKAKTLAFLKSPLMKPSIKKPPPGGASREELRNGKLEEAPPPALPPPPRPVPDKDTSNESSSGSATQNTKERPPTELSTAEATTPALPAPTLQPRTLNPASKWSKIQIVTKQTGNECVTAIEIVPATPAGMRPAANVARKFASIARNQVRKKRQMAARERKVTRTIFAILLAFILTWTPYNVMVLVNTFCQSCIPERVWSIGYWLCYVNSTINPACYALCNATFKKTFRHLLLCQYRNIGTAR

[8] = biological target: T3, hM2 (Homo sapiens, UniProt P08172); test: calcium mobilization assay, hM2/Gqi5 CHO cells, ACh EC80; type: cell-based
T3 sequence (P08172 1-466): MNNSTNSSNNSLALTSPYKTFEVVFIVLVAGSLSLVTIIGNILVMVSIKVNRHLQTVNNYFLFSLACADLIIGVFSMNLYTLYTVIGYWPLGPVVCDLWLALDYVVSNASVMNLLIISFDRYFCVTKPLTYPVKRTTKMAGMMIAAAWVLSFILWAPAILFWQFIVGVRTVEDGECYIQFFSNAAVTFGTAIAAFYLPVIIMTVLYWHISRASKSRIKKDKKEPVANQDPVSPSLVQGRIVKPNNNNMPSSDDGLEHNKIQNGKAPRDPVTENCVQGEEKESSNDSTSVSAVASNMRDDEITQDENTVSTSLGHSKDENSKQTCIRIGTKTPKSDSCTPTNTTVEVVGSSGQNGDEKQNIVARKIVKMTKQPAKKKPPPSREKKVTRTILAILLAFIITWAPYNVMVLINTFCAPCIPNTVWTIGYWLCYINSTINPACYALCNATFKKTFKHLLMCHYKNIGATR

[9] = biological target: T4, hM1 (Homo sapiens, UniProt P11229); test: calcium mobilization assay, hM1 CHO cells, ACh EC80; type: cell-based
T4 sequence (P11229 1-460): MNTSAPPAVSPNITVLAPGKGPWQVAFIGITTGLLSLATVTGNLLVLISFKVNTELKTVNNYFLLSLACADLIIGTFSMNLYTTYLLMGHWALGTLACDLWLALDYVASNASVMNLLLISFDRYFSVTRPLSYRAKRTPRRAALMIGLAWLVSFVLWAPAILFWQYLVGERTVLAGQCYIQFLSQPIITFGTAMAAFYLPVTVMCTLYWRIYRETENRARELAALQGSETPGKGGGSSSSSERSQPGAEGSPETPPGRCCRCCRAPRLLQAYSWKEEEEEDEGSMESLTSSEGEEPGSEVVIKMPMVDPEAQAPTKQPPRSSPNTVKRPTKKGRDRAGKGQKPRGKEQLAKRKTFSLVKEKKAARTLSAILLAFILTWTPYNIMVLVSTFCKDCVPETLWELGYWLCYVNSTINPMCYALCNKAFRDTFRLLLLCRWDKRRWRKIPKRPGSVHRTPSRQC

[10] = biological target: hM3 (Homo sapiens, UniProt P20309); test: calcium mobilization assay, hM3 CHO cells, ACh EC80; type: cell-based
Sequence of hM3 (P20309 whole entry): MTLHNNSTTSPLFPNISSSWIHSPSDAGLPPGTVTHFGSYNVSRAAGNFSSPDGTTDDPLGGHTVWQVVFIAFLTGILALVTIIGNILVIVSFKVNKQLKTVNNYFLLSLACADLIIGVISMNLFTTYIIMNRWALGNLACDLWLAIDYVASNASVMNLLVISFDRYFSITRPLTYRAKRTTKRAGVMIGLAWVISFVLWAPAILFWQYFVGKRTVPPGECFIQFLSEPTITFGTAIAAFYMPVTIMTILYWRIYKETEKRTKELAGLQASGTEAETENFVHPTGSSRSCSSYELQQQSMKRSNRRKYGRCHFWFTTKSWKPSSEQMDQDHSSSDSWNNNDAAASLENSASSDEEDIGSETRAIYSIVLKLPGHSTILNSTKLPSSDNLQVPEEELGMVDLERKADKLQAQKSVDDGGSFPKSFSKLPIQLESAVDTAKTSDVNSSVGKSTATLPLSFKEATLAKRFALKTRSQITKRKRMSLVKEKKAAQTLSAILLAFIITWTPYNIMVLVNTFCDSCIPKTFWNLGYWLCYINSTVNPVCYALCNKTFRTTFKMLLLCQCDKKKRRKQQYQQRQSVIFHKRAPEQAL

[11] = biological target: T5, hM5 (Homo sapiens, UniProt P08912); test: calcium mobilization assay, hM5 CHO cells, ACh EC80; type: cell-based
T5 sequence (P08912 1-532): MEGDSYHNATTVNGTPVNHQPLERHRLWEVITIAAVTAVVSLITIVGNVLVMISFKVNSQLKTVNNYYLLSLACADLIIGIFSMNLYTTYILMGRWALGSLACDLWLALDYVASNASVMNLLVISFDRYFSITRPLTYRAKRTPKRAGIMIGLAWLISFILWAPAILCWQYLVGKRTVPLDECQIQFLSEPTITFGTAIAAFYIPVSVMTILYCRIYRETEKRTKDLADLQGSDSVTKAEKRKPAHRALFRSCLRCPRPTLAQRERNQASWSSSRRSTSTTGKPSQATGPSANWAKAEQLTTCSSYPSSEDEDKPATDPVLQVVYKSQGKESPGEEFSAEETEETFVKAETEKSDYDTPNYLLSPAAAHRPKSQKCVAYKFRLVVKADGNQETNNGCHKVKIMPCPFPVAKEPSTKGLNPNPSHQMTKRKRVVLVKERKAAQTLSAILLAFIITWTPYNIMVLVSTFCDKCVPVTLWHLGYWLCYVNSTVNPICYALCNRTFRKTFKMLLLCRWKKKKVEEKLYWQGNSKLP

## C[C@H]1CCCCN1c1ccc(N2CCN(S(=O)(=O)c3ccccc3Cl)CC2)nn1 [Compound 6a]
[1]; hM4 versus hM1, hM2, hM3, hM5
  M4-preferring functional selectivity over other mAChRs: 2.7- to 16 fold
[2]
  predicted hepatic clearance (CLhep), human: > 20 mL/min/kg
[3]
  plasma protein binding: high plasma protein binding
[4]
  parent remaining, rat microsomes: very little parent remained
[4]; oxidative metabolism of the piperidine moiety
  major peak (UV and extracted ion chromatograms), rat microsomes: metabolite F
[4]; presence and absence of NADPH
  NADPH-independent metabolism, rat microsomes: no NADPH-independent metabolism
[5]
  predicted hepatic clearance (CLhep), rat: > 60 mL/min/kg
[6]
  number of NADPH-dependent metabolites formed, human microsomes: 8
  parent remaining, human microsomes: parent remained the major species
[6]; presence and absence of NADPH
  NADPH-independent metabolism, human microsomes: no NADPH-independent metabolism

## C[C@H]1CCCCN1c1ccc(N2CCN(S(=O)(=O)c3ccccc3)CC2)nn1 [Compound 9c]
[1]
  hM4 activity: weak

## COc1ccccc1S(=O)(=O)N1CCN(c2ccc(N3CCCC[C@@H]3C)nn2)CC1 [Compound 9d]
[1]
  hM4 activity: weak

## C[C@H]1CCCCN1c1ccc(N2CCN(S(=O)(=O)c3ccccc3C(F)(F)F)CC2)nn1 [Compound 9e]
[1]
  hM4 activity: essentially equipotent to 6a

## C[C@H]1CCCCN1c1ccc(N2CCN(S(=O)(=O)c3ccc4c(c3)OCO4)CC2)nn1 [Compound 9i]
[1]; 9i versus 9j
  fold more potent at hM4 than 3,4-dimethoxy analog 9j: 10 fold

## C[C@H]1COCCN1c1ccc(N2CCN(S(=O)(=O)c3ccccc3Cl)CC2)nn1 [Compound 14a]
[1]
  hM4 % ACh Min ±SEM: 56 % ACh Min

## C[C@H]1COCCN1c1ccc(N2CCN(S(=O)(=O)c3ccc4c(c3)OCO4)CC2)nn1 [Compound 14b]
[1]
  hM4 % ACh Min ±SEM: 63 % ACh Min

## Cc1noc(C)c1S(=O)(=O)N1CCN(c2ccc(N3CCOC[C@@H]3C)nn2)CC1 [Compound 14c]
[1]
  hM4 % ACh Min ±SEM: 66 % ACh Min

## O=S(=O)(c1ccccc1Cl)N1CCN(c2ccc(N3CCCCC3)nn2)CC1 [Compound 14g]
[1]
  fold loss in hM4 inhibitory activity relative to 6a: 5- to 6 fold

## Cc1noc(C)c1S(=O)(=O)N1CCN(c2ccc(N3CCCC(C)(C)C3)nn2)CC1 [Compound 14n, 4-[4-[6-(3,3-dimethyl-1-piperidyl)pyridazin-3-yl]piperazin-1-yl]sulfonyl-3,5-dimethyl-isoxazole]
[2]
  predicted hepatic clearance (CLhep), human: 20 mL/min/kg
[7]
  rM4 % ACh Min: 32±1 % ACh Min
[7]; rM4 pIC50
  IC50: 372 nM
[8]
  mode of antagonism at human M2: potent full antagonist
[9]
  mode of antagonism at human M1: potent full antagonist
[10]
  mode of antagonism at human M3: weak, partial antagonism
[11]
  mode of antagonism at human M5: weak, partial antagonism
[5]
  predicted hepatic clearance (CLhep), rat: 66.6 mL/min/kg

## O=C1CCCCN1c1ccc(N2CCN(S(=O)(=O)c3ccccc3Cl)CC2)nn1 [Compound 14o]
[1]
  hM4 % ACh Min ±SEM: 51 % ACh Min
